Data on four molecules can be found in patent US8476455B2, “1-N-phenyl-amino-1h-imidazole derivatives and pharmaceutical compositions containing them” (Laboratoire Theramex, priority 2003, dated 2013).

The subject of one data set is steroid sulfatase. Nature of the data set: Anti uterotrophic/anti steroid sulfatase activity in vivo. Conditions: ovariectomized Wistar female rats, E1S 50 μg/kg/day s.c., oral 1 mg/kg/day for 4 days; % of inhibition of the E1S induced stimulation. Further details: species or system rat. Here is the method:
Wistar female rats were ovariectomized and left to rest for 4 weeks. Prior to treatment, the absence of cyclicity was checked by vaginal smears. Animals were supplemented with estrone sulfate (EIS) at 50 μg/kg/day s.c., alone or combined with oral administration of potential sulfatase inhibitors, at 1 mg/kg/day for 4 days. The uteri were removed, freed of adjacent tissue and wet weighed (Table 3).
Estrone sulfatase activity is measured according to the method described by Purohit et al., with slight modifications. Briefly, uteri were thawed, weighed and homogenized. Aliquots of the supernatant were treated with dextran-coated charcoal and assayed for sulfatase. E1S activity is assessed after 30 min of incubation with 5 nM of ^3H-E1S and 20 μM of unlabelled E1S as substrate. Estrone sulfatase activity is expressed as pmol/h/mg protein and reported as percentage of inhibition vs E1S; for uterus weights, results are expressed as % of inhibition of the E1S induced stimulation

The next data set deals with T1, human estrone sulfatase (Homo sapiens, UniProt P08842).
T1 construct: The JEG-3 cell line is intrinsically very rich in human estrone sulfatase; endogenous in cells; host or cells: JEG-3 (human placental choriocarcinoma)
T1 sequence (P08842 22-583): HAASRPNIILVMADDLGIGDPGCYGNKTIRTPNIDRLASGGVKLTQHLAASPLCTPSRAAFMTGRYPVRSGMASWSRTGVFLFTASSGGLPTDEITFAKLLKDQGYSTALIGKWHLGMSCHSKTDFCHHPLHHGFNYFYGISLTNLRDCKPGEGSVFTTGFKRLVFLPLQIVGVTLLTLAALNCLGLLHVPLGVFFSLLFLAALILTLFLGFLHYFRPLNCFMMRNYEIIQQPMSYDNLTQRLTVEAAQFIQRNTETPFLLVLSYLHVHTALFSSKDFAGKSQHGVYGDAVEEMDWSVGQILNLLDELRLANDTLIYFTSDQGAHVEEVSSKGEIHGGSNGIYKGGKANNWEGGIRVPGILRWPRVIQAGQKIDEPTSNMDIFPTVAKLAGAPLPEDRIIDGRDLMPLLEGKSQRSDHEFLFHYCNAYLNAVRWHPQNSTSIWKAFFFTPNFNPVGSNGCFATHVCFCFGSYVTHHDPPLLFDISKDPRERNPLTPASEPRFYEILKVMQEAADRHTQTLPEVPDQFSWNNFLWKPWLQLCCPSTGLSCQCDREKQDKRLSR
Nature of the data set: Steroid (estrone) sulfatase activity alone in JEG-3 cells. The format is cell-based. The settings on record: footnote b: sulfatase activity alone, nd: not detected, read-out: Sulfatase activity IC50 (nM) ± S.E.M. Here is the method: (§1) The JEG-3 cell line is intrinsically very rich in human estrone sulfatase and therefore is a useful biological system to evaluate new steroid sulfatase inhibitors in vitro. Assays were carried out with cells in logarithmic growth phase on 96-well microplates. 24 h before studies, cells were seeded in decomplemented fetal calf serum (dFCS) supplemented medium. The medium was removed 24 h later and cells were rinsed with PBS to eliminate any trace of dFCS. Then, ^3H-E1S was added in dFCS free medium, followed by test compounds at concentrations ranging from 10^−12 M to 10^−5 M. After 4 h of treatment, the medium was transferred into 96-deep-well microplates and centrifuged at 200×g for 10 min to pellet cells before toluene extraction. A fraction of the medium was used for toluene extraction in order to separate the conjugated substrate from non-conjugated products. The radioactivity in the toluene phase was measured by liquid scintillation counting. In parallel, after cell solubilization in a ethylenediamine tetraacetate solution, DNA content was measured by a standard fluorimetric method using the Hoechst 33258 fluorochrome. Finally, estrone sulfatase activity was expressed in pmoles of ^3H-E1+^3H-E2 formed/4 hours/mg DNA and estrone sulfatase inhibition as a percentage of control activity without inhibitor.

For a further data set, the target named is T2, human steroid sulfatase (Homo sapiens, UniProt P08842).
T2 construct: The JEG-3 cell line is intrinsically very rich in human estrone sulfatase; endogenous in cells; host or cells: JEG-3 (human placental choriocarcinoma)
T2 sequence (P08842 22-583): T1 sequence (P08842 22-583)
Nature of the data set: Dual aromatase and steroid sulfatase activities in JEG-3 cells: sulfatase readout. The format is cell-based. Conditions: footnote c: dual aromatase and sulfatase activity, nd: not detected, read-out: Sulfatase activity IC50 (nM) ± S.E.M. Here is the method: as §1
(§2) In order to evaluate the inhibitory potency of DASI compounds in parallel on both human aromatase and steroid sulfatase activities, a new in vitro model was set up using JEG-3 cells. The experimental conditions of the steroid sulfatase model previously described was adopted with slight modifications: the presence of the two substrates ^3-HE1S and 1β-^3H-androstenedione into the medium and an incubation period of 2 hours. Results were expressed in pmoles of product formed (^3H-E1+^3H-E2 or ^3H2O)/2 hours/mg DNA (Table 1).

In the next data set the target is T3, human aromatase (Homo sapiens, UniProt P11511).
T3 construct: The JEG-3 cell line, derived from a human placental choriocarcinoma, constitutively overexpresses human aromatase; endogenous in cells; host or cells: JEG-3 (human placental choriocarcinoma)
T3 sequence (P11511 1-503): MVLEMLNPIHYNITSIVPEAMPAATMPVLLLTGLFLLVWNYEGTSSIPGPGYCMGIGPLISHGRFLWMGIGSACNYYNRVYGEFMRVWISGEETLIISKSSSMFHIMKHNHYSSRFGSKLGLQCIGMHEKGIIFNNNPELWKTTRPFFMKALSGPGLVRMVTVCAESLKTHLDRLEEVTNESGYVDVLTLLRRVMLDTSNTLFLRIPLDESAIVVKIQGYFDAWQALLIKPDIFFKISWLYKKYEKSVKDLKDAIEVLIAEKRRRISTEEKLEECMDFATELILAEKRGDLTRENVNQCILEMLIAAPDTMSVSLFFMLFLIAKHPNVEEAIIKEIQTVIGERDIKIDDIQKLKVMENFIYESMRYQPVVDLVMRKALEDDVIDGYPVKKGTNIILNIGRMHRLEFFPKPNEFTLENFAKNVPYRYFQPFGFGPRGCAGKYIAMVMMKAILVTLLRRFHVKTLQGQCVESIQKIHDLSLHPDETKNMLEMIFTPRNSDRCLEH
Nature of the data set: Dual aromatase and steroid sulfatase activities in JEG-3 cells: aromatase readout. The format is cell-based. The settings on record: footnote c: dual aromatase and sulfatase activity, nd: not detected, read-out: Aromatase activity IC50 (nM) ± S.E.M. Here is the method: as §1, with “Assays” for “The JEG-3 cell line is intrinsically very rich in human estrone sulfatase and therefore is a useful biological system to evaluate new steroid sulfatase inhibitors in vitro. Assays”, “In parallel, after cell solubilization in a ethylenediamine tetraacetate solution, DNA content was measured by a standard fluorimetric method using the Hoechst 33258 fluorochrome.” left out
as §2

The target of data set [1] is human carbonic anhydrase II (Homo sapiens, UniProt P00918). Nature of the data set: Human carbonic anhydrase II activity (p-nitrophenyl acetate, colorimetric). The format is biochemical. Conditions: read-out: Human carbonic anhydrase II activity IC50 (nm) ± S.E.M. On the procedure:
Briefly, in this assay, human carbonic anhydrase II catalyses the conversion of p-nitrophenyl acetate into pnitrophenol. The potential inhibitory effect of test compounds was evaluated by colorimetric determination of prnitrophenol produced during the enzymatic reaction. The optical density levels obtained without inhibitor will be referred to as “total activity”. The levels obtained without Inhibitor and without the enzyme will be referred to as “blank” in order to assess any interference with the substrate during the assay (Table 2).

The subject of data set [2] is aromatase. Description: Inhibition of estradiol peak, in vivo aromatase inhibition model. Also noted: species or system rat. Conditions: female rats, 24 hours after one oral administration. On the procedure:
One hundred IOPS Wistar female rats, weighing 180 to 200 g, were accommodated by four in stainless steel mesh cages. […] Vaginal smears were performed for each animal, each morning, in order to establish the different phases of cycle. […] Starting at 4.00 pm, animals received an oral administration of formulations. 24 hours later, samples of serum were collected and estradiol level were determined as previously described (Table 4).

Data set [3] relates to aromatase. The settings on record: 3 μg/kg, 24 hours after one single oral administration in female rats; cited from earlier work.

`NS(=O)(=O)Oc1ccc2c3c(c(=O)oc2c1)CCCCC3` [6,6,7 COUMATE, 6,6,7-COUMATE, reference compound]: the “% inhibition (uterus weight)” value in the data set on steroid sulfatase is reported as 81%.

In the case of `NS(=O)(=O)Oc1ccc2c(c1)S(=O)(=O)C=C2CC1CCCCCC1` [A*, sulfamic acid, 3-cycloheptylmethylbenzothiophen-6-yl-1,1-dioxide-ester, reference compound], the IC50 at human estrone sulfatase was found to be 2.5 ± 0.5 nM; on human steroid sulfatase, 3.6 ± 0.8 nM.

As to `N#Cc1ccc(N(CCOc2ccc(OS(N)(=O)=O)cc2)n2ccnc2)cc1` [Ex 51, Sulfamic acid 4-{2-[N-(4-cyanophenyl)-N-(1H-imidazol-1yl)amino]ethoxy}phenyl ester], the melting point worked out at 174 °C. Further, the IC50 on human aromatase worked out at 0.34 ± 0.13 nM. The IC50 on human steroid sulfatase is 597 ± 67.4 nM. Besides, the IC50 in data set [1] worked out at 6.5 ± 0.9 nM.

Consider `CC(C)(C#N)c1cc(Cn2cncn2)cc(C(C)(C)C#N)c1` [anastrozole, reference compound], for which the “% inhibition (estradiol peak)” value in the data set on aromatase [2] was 56%. For the same molecule, the “estradiol levels (in words)” value in the data set on aromatase [3] is on record as “significantly inhibits”.
